Consider two compounds from patent US20250186450A1, “COMBINATION THERAPY COMPRISING DGK INHIBITORS and PD-1/PD-L1 INHIBITORS” (Incyte Corporation, priority 2023, published 2025).

In one assay the target is DGKα (Homo sapiens (Human), UniProt P23743). The assay can be described thus: In vitro DGKα inhibition assay (ADP-Glo). Particulars: 0.1 nM DGKα, 50 μM ATP, 20 μM DLG. The format is biochemical. As to the method:
The DGKα and DGKζ biochemical reactions were performed using His-tagged human recombinant enzymes (Signal Chem, DGKα, #D21-10BH; DGKζ, #D30-10H)) and DLG (Dilauroyl-sn-glycerol) lipid substrate (Signal Chem, #D430-59). ADP-Glo assay was performed using ADP-Glo™ kinase Assay kit (Promega, #V9104). The reactions were carried out in assay buffer containing 40 mM Tris, pH 7.5, 0.1% CHAPS, 0.1% Prionex, 40 mM NaCl, 5 mM MgCl2, 1 mM CaCl2, and 1 mM DTT. DGKα reactions contained 0.1 nM DGKα, 50 μM ATP, and 20 μM DLG. And DGKζ reactions contained 0.4 nM DGKζ, 30 μM ATP, and 20 μM DLG.
For compound inhibition studies, 40 nL test compound in DMSO was added to wells of white polystyrene plates in 384-well (Greiner, #784075) or 1536-well format (Greiner, #782075). Compounds were added with top concentration of 2 mM with 11 point, 3-fold dilution series. Enzyme solution (contains 2×DGK enzyme concentration in 1× assay buffer) was added to the plate in 2 μL/well volume, followed by 2 μL/well of substrate solution (contains 2× concentration of ATP and DLG substrate in 1× assay buffer). Plates were then centrifuged for 1 min at 1200 RPM and sealed or lidded. For 4 μL reaction volume, test compounds were therefore diluted 100× to final top concentration of 20 μM. After 90 minute incubation, reactions were quenched by addition of 2 μL/well Promega ADP-Glo Reagent, followed by centrifugation and lidding. After 60 min incubation, 2 μL/well Promega Kinase Detection Reagent was added, plates centrifuged, and incubated for 30 min. Plates were then read using Luminescence method on BMG PHERAstar FSX plate reader. Percent inhibition was calculated and IC50s were determined using 4-parameter fit in Genedata Screener. Labcyte Echo acoustic dispenser was used for compound addition, and Formulatrix Tempest liquid handler was used for all reagent dispenses.

Assay [1] concerns MC38 syngeneic tumor model. The assay is described as follows: MC38 syngeneic tumor model, DGK inhibitor plus anti-PD-1 (RMP1-14). The format is in vivo, C57Bl/6 mice. On the procedure:
The in vivo effect of combining Compound 1 plus anti-PD-1 (RMP1-14, Bio X Cell) was assessed in the MC38 (CRL-1642, ATCC, Manassas, VA) syngeneic tumor model (see FIG. 3) in 6 to 8 weeks old C57Bl/6 mice (Jackson laboratories). Compound 1 was suspended in 5% N,N-dimethylacetamide (DMAC)+50 mM Citrate buffer in 0.5% methyl cellulose for oral administration and RMP1-14 was suspended in saline for intraperitoneal administration. Briefly, the left flank of the mice was shaved the day prior to subcutaneous inoculation with 2×10^6 MC38 cells suspended in PBS. On day 7, tumor dimensions were measured by Vernier calipers, and volume estimated by the formula Volume=[L (long dimension)×W^2 (short dimension)]/2. Mice were randomized into 6 groups of 10 mice of approximate mean volume (˜160 mm^3). Tumors were measured 3 times per week for the duration of the study. Starting day 7, mice were dosed with (i) vehicle; (ii) 250 μg/mouse of RMP1-14; (iii) 10 mg/kg of Compound 1; (iv) 1 mg/kg of Compound 1; (v) 10 mg/kg of Compound 1 and 250 μg/mouse of RMP1-14; or (vi) 1 mg/kg of Compound 1 and 250 μg/mouse of RMP1-14. Compound 1 was administered orally once daily (QD) for 12 days, while RMP1-14 was dosed every 5 days (for a total of 3 doses).
The in vivo effect of combining Compound 2 plus anti-PD-1 (RMP1-14, Bio X Cell) was assessed in the MC38 (CRL-1642, ATCC, Manassas, VA) syngeneic tumor model in 6 to 8 weeks old C57Bl/6 mice (Jackson laboratories). Compound 2 was suspended in 5% N,N-dimethylacetamide (DMAC)+50 mM Citrate buffer in 0.5% methyl cellulose for oral administration and RMP1-14 was suspended in saline for intraperitoneal administration. Briefly, the left flank of the mice was shaved the day prior to subcutaneous inoculation with 2×10^6 MC38 cells suspended in PBS. On day 7, tumor dimensions were measured by Vernier calipers, and volume estimated by the formula Volume=[L (long dimension)×W^2 (short dimension)]/2. Mice were randomized into 6 groups of 10 mice of approximate mean volume (˜130 mm^3). Tumors were measured 3 times per week for the duration of the study. Starting day 7, mice were dosed with (i) vehicle; (ii) 250 μg/mouse of RMP1-14 (Anti-PD-1); (iii) 0.5 mg/kg of Compound 2 QD; (iv) 0.5 mg/kg of Compound 2 […] and 250 μg/mouse of RMP1-14; (v) 0.5 mg/kg of Compound 2 Q2D; (vi) 0.5 mg/kg of Compound 2 […] and 250 μg/mouse of RMP1-14; (vii) 1.5 mg/kg of Compound 2 QD; (viii) 1.5 mg/kg of Compound 2 QD and 250 μg/mouse of RMP1-14 (ix) 1.5 mg/kg of Compound 2 Q2D; (x) 1.5 mg/kg of Compound 2 Q2D and 250 μg/mouse of RMP1-14; (xi) 1.5 mg/kg of Compound 2 Q3D; or (xii) 1.5 mg/kg of Compound 2 Q3D and 250 μg/mouse of RMP1-14.
The in vivo effect of combining 2-(4-((2S,5R)-4-(bis(4-fluorophenyl)methyl)-2,5-dimethylpiperazin-1-yl)-1H-[1,2,4]triazolo[3,4-b]purin-1-yl)-N,N-dimethylethane-1-amine (i.e., Compound 3) plus anti-PD-1 (RMP1-14, Bio X Cell) was assessed in the MC38 (CRL-1642, ATCC, Manassas, VA) syngeneic tumor model in 6 to 8 weeks old C57Bl/6 mice (Jackson laboratories). Compound 3 was suspended in 5% N,N-dimethylacetamide (DMAC)+50 mM Citrate buffer in 0.5% methyl cellulose for oral administration and RMP1-14 was suspended in saline for intraperitoneal administration. Briefly, the left flank of the mice was shaved the day prior to subcutaneous inoculation with 2×10^6 MC38 cells suspended in PBS. On day 7, tumor dimensions were measured by Vernier calipers, and volume estimated by the formula Volume=[L (long dimension)×W^2 (short dimension)]/2. Mice were randomized into 6 groups of 10 mice of approximate mean volume (˜200 mm^3). Tumors were measured 3 times per week for the duration of the study. Starting day 7, mice were dosed with (i) vehicle; (ii) 250 μg/mouse of RMP1-14 (Anti-PD-1); (iii) 10 mg/kg of Compound 3 QD; (iv) 10 mg/kg of Compound 3 QD and 250 μg/mouse of RMP1-14; (v) 30 mg/kg of Compound 3 QD; or (vi) 30 mg/kg of Compound 3 QD and 250 μg/mouse of RMP1-14.

pIC50: −log10 of the molar value. “Also recorded” adds a separate entry of the source.

DGKα, sequence (P23743 whole entry): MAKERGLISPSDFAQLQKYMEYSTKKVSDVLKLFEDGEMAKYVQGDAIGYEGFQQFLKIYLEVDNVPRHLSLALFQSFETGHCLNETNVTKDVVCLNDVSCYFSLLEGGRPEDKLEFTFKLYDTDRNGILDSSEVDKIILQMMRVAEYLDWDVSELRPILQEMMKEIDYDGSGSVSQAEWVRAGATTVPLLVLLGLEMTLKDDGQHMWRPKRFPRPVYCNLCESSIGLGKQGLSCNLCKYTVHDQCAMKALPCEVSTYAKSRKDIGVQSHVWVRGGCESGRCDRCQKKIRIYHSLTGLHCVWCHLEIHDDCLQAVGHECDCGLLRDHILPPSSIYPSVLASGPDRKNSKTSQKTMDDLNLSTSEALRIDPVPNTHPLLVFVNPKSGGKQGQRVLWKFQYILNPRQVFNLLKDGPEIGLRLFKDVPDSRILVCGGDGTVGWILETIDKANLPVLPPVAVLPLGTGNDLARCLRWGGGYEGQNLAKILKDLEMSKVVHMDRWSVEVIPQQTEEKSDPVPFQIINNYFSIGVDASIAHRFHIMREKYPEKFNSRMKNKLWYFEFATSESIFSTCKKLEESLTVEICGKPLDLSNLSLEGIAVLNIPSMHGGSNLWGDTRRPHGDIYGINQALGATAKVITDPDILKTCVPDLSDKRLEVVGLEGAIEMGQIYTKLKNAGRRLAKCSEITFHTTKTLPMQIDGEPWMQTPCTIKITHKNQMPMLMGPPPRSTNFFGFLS

`Cc1nc2c(N3C[C@@H](C)N(C(c4ccc(C(F)(F)F)cc4)C4CC(F)(F)C4)C[C@@H]3C)nc3nncn3c2n1C[C@@H]1CCCO1` (single isomer, unassigned) [Example 2] gave a pIC50 against DGKα of at least 7.70. Besides, the “TGI, combined with anti-PD-1 mAb, vs anti-PD-1 mAb control group” value in assay [1] (1.5 mg/kg Compound 2 and 250 μg/mouse RMP1-14, FIG. 7) is given as “significant TGI”. For the same compound, the “TGI, combined with anti-PD-1 mAb, vs vehicle control group” value in assay [1] (0.5 and 1.5 mg/kg Compound 2, independent of dose schedule, and 250 μg/mouse RMP1-14, FIG. 7) is “statistically significant; also recorded: significant TGI”. Besides, the “TGI, combination groups vs respective single-arm Compound 2 control group” value in assay [1] (0.5 or 1.5 mg/kg Compound 2 and 250 μg/mouse RMP1-14) is “statistically significant”. The “TGI vs vehicle and anti-PD-1 mAb control groups” value in assay [1] (Compound 2 alone, 0.5 or 1.5 mg/kg, FIG. 7) was “None of the single treatment arm groups dosed with Compound 2 0.5 or 1.5 mg/kg provided statistically significant TGI”.
Regarding `C[C@@H]1CN(c2nc3nncn3c3c2nnn3C[C@H]2CCCO2)[C@@H](C)CN1C(c1ccc(F)cc1)c1ccc(F)cc1` [Example 1, 4-((2S,5R)-4-(Bis(4-fluorophenyl)methyl)-2,5-dimethylpiperazin-1-yl)-1-(((R)-tetrahydrofuran-2-yl)methyl)-1H-[1,2,3]triazolo[4,5-e][1,2,4]triazolo[4,3-a]pyrimidine], the pIC50 at DGKα was at least 7.70. Also, in assay [1] (10 mg/kg or 1 mg/kg Compound 1 QD for 12 days with 250 μg RMP1-14, vs respective controls, FIG. 3), the “combination effect on tumor growth delay (Bliss Independence analysis)” value is “additive effect in tumor growth delay”.
